From patent EP3315495A1, “N,N' -[…], N,N' -DIAR[…] N,N' -DIARY[…] FOR USE IN TREATMENT AND PREVENTION OF INFLAMMATORY DISEASE” (Universität Innsbruck, priority 2016, dated 2018)
pIC50: −log10 of the molar value. Where two headings read alike, the source gives them in different places. Marks after values point to notes of the source that are not given here.

Tests used:
[1] = test system: 5-LOX product formation in PMNL; experiment: 5-LOX product formation in PMNL stimulated with A23187 (cell-based); design: species or system human; conditions: for inhibition at 10 µM: read-out: Effect on 5-LOX product formation in PMNL, % inhibition
Experimental: Briefly, first a cell-based assay allows to determine the inhibition of the 5-LOX product biosynthesis. The cell suspension contained human neutrophils (PMNL) or monocytes, wherein the cells were isolated from buffy coats obtained from healthy donors pooled by gender. An aliquot cell suspension was incubated with the candidate compound for 15 min at 37 °C. The cells are treated with calcium ionophore A23187 to stimulate 5-LOX product formation for further 10 min (37 °C), optionally in presence of various concentrations of AA. The reaction was stopped with 1 mL methanol on ice.
(§1) In both assays, product quantification was conducted with RP-HPLC and UV detection after solid phase extraction and addition of 200 ng prostaglandin B1 as internal standard.

mPGES = mPGES activity; format: biochemical; conditions: concentrations up to 10 µM
[2] = test system: leukotriene mediated peritonitis; experiment: Zymosan-induced peritonitis model in mice; format: in vivo, CD1 male mice; conditions: intraperitoneal, 30 min prior to zymosan
Experimental: Compound I-12 was evaluated in vivo in a peritonitis model in mice. The experimental protocols were approved by the Animal Care Committee of the University of Naples Federico II, in compliance with Italian regulations on protection of animals used for experimental and other scientific purpose (Ministerial Decree 116/92) as well as with the European Economic Community regulations (Official Journal of E.C. L 358/1 12/18/1986); protocol number: 2014/0018760 27th February 2014. CD1 male mice with an age of six to eight weeks were investigated. The leukotriene mediated peritonitis is induced by injection of 1 mg zymosan in 50 µl saline solution. 30 min prior to induction, the candidate compound was applied as intraperitoneal injection in different concentrations as well as DMSO as negative control and positive controls (MK886, zileuton). Results are given in Table 3, wherein […] and LTB 4 levels are measured as well as vascular permeability (VP) and the cell recruitment in the peritoneal cavity (Cell Rec). Table 3: Results from an in vivo study with a mouse peritonitis model
In Table 3, values in percent indicate the percent inhibition in respect to the vehicle control. Statistical significance is determined via ANOVA Bonferroni, wherein * indicates p<0.05; ** indicates p<0.01; *** indicates p<0.001 vs. vehicle. N indicates the number of investigated mice.

12-LOX = format: cell-based; conditions: neutrophils, exogenous AA 10, 30 or 60 µM
From the text: (§2) […]. […] This could be beneficial as the 15-LOX product 15-HETE is anti-inflammatory.

15-LOX = format: cell-based; conditions: neutrophils
From the text: as §2

COX-1 = COX-1 (Homo sapiens, UniProt P23219); experiment: COX-1 activity; format: biochemical; conditions: concentrations up to 10 µM
COX-2 = target: T1, COX-2 (Homo sapiens, UniProt P35354); experiment: COX-2 activity; format: biochemical; conditions: concentrations up to 10 µM
T1 sequence (P35354 18-604): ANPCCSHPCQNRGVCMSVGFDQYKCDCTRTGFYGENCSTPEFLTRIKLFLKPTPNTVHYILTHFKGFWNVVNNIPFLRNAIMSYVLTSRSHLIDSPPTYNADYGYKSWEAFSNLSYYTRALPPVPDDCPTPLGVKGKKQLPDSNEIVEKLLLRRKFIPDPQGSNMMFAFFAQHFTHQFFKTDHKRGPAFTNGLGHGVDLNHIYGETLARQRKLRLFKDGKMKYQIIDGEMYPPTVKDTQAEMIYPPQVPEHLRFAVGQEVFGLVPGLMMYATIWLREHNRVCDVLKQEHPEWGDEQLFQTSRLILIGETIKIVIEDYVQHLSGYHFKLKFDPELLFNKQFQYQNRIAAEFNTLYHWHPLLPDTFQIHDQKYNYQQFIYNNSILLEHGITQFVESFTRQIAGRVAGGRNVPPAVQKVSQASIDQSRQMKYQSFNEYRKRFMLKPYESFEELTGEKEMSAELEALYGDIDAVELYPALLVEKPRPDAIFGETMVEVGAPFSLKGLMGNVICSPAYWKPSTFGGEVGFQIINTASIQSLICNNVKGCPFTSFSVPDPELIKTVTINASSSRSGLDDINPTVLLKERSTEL

HEK cells with FLAP = experiment: 5-LOX product formation in HEK cells that express FLAP
FLAP = target: T2, FLAP (Homo sapiens, UniProt P20292); conditions: active = inhibition of product formation in cells without 5-LOX activity in the cell-free assay
T2 sequence (P20292 1-161): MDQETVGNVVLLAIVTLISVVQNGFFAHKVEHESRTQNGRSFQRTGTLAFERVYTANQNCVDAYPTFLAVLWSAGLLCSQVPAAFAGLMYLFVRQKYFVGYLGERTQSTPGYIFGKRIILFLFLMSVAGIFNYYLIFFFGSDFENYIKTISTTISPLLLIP
Experimental: The enzyme was preincubated for 15 min with the potential inhibitor on ice and subsequently exposed to 2 mM CaCl2 and 20 µM AA for 10 min at 37°C.
Effect on 5-LOX product formation and sEH activity is determined as described above. In case of observed effect on 5-LOX product formation in the cellular assay, 5-LOX activity was investigated with isolated 5-LOX.

isolated 5-LOX = target: T3, isolated 5-LOX (Homo sapiens, UniProt P09917); experiment: FLAP-independent cell-free enzymatic assay with isolated recombinant 5-LOX; format: biochemical; conditions: for inhibition at 10 µM: read-out: Effect on isolated 5-LOX, % inhibition
T3 construct: made in house; host or cells: E. coli
T3 sequence (P09917 1-674): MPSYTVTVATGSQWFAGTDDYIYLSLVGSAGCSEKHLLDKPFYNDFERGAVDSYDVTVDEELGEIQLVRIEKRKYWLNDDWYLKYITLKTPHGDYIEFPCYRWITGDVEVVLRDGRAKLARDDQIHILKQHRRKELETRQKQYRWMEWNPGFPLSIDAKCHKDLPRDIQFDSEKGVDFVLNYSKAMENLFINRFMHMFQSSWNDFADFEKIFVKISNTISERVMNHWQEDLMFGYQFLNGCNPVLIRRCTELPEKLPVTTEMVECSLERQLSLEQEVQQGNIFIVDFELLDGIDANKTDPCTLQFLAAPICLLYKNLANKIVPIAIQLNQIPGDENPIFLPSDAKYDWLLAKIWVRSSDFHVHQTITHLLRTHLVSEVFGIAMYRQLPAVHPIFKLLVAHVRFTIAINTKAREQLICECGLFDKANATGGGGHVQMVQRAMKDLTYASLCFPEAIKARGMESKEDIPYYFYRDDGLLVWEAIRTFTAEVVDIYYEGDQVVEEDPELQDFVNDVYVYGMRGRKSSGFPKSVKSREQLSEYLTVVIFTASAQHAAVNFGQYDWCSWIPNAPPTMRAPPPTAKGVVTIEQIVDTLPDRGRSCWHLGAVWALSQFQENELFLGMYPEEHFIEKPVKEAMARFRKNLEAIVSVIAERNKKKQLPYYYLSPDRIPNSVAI
Experimental: as §1

sEH [3] = target: T4, sEH (Homo sapiens, UniProt P34913); experiment: biochemical; conditions: read-out: Effect on sEH activity, % inhibition
T4 sequence (P34913 1-555): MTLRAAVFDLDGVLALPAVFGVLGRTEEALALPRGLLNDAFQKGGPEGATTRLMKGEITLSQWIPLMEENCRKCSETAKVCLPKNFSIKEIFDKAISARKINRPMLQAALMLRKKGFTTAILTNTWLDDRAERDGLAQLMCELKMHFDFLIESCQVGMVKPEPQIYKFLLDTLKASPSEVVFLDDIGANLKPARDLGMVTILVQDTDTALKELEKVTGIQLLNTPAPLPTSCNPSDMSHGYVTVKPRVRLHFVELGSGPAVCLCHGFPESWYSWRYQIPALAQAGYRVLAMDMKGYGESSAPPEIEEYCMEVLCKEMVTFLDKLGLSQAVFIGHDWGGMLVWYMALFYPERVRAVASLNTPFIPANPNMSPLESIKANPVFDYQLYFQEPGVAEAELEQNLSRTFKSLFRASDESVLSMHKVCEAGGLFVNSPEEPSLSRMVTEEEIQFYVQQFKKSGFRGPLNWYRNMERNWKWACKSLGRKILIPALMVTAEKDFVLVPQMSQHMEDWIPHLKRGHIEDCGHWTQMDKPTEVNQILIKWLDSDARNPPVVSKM
Experimental: (§3) In brief, sEH was expressed in transfected Sf9-cells. Isolation of sEH from the cell pellet was conducted with a benzylthiosepharose matrix. […] The reaction was stopped with ZnSO4 (0.2 M) after 60 min incubation. […] Inhibitors were tested for self fluorescence. Positive controls were AUDA (12-(3-adamantan-1-yl-ureido)dodecanacid) and DCU (N,N'-dicyclohexylurea) at 10 µM.

sEH [4] = target: T4, sEH; conditions: at 0.1 µM
Experimental: as §3

[5] = Homo sapiens, PMNL, read-out: Effect on 5-LOX product formation in PMNL, IC50

COX-1, sequence (P23219 24-599): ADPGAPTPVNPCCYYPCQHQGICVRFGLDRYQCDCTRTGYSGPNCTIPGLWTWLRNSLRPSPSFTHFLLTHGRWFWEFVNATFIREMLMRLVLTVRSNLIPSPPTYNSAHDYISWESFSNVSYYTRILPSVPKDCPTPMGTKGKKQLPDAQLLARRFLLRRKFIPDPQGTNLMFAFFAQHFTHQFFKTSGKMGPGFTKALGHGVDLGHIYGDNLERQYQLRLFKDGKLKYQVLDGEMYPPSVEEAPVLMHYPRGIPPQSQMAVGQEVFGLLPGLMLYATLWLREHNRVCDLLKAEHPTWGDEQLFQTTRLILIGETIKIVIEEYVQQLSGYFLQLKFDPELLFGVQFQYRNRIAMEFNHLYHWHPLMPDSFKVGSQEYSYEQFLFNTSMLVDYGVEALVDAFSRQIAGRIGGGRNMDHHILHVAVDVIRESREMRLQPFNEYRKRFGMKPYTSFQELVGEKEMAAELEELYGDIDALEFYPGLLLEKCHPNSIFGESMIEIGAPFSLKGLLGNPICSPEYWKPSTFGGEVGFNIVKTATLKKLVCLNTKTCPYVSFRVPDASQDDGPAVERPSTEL

## Cc1cc(OCc2nc3ccccc3s2)ccc1NC(=O)Nc1ccc(Cl)c(Cl)c1 [Compound I-12, N-[4-(2-benzothiazolylmethoxy)-2-methylphenyl]-N'-(3,4-dichlorophenyl)-urea]
HEK cells without FLAP
  effect on 5-LOX product formation: nearly no effect
[1]; Homo sapiens, PMNL, male PMNL cells, Exogenous AA 3 µM, read-out: IC50 values for 5-LOX product formation
  pIC50: 6.42
[1]; Homo sapiens, PMNL, male PMNL cells, Exogenous AA 10 µM, read-out: IC50 values for 5-LOX product formation
  pIC50: 5.80
[1]; Homo sapiens, PMNL, male PMNL cells, Exogenous AA 30 µM, read-out: IC50 values for 5-LOX product formation
  pIC50: 5.68
[1]; Homo sapiens, PMNL, male PMNL cells, Exogenous AA 60 µM, read-out: IC50 values for 5-LOX product formation
  pIC50: 5.04
[1]; [5]
  pIC50: 6.62
mPGES
  mPGES: not affected
[2]; 1 mg
  Cell Rec (cell recruitment in the peritoneal cavity): 5.93±0.321 10^6/ml
  Cell Rec, percent inhibition in respect to the vehicle control: 22%
  LTB4: 280 ± 42.8 pg/mL
  LTB4, percent inhibition in respect to the vehicle control: 59%**
  LTC4: 26.0 ± 9.47 ng/mL
  LTC4, percent inhibition in respect to the vehicle control: 70%***
[2]; 3 mg
  Cell Rec (cell recruitment in the peritoneal cavity): 4.4±0.509 10^6/ml
  Cell Rec, percent inhibition in respect to the vehicle control: 42%***
  LTB4: 345 ± 69.2 pg/mL
  LTB4, percent inhibition in respect to the vehicle control: 50%*
  LTC4: 30.5 ± 10.3 ng/mL
  LTC4, percent inhibition in respect to the vehicle control: 66%***
[2]; 10 mg
  Cell Rec (cell recruitment in the peritoneal cavity): 3.36±0.439 10^6/ml
  Cell Rec, percent inhibition in respect to the vehicle control: 56%***
  LTB4: 193 ± 34.4 pg/mL
  LTB4, percent inhibition in respect to the vehicle control: 72%***
  LTC4: 25.8 ± 2.66 ng/mL
  LTC4, percent inhibition in respect to the vehicle control: 70%***
  VP (vascular permeability): 0.347±0.09 abs 610 nm
  VP, percent inhibition in respect to the vehicle control: 38%
12-LOX
  product formation of 12-LOX: did not inhibit
15-LOX; 10 µM AA
  product formation of 15-LOX (15-HETE): increase of the product formation
15-LOX; exogenous AA 10, 30 or 60 µM
  product formation of 15-LOX: did not inhibit
COX-1
  COX-1 activity: not affected
COX-2
  COX-2 activity: not affected
HEK cells with FLAP
  effect on 5-LOX product formation: inhibits the product formation

## Cc1cc(OCc2nc3ccccc3n2C(=O)OC(C)(C)C)ccc1NC(=S)Nc1ccc(Cl)c(Cl)c1 [EZ15, N-[4-(1-tert.-Butoxycarbonyl-1H-benzimidazol-2-ylmethoxy)-2-methylphenyl]-N'-(3,4-dichlorophenyl)-thiourea]
[1]; Homo sapiens, PMNL, at 10 µM
  inhibition at 10 µM: ~39%
FLAP
  Effect on FLAP activity: inactive
Isolated 5-LOX; at 10 µM
  inhibition at 10 µM: ~33%
sEH [3]
  inhibition at 10 µM: ~66%

## Cc1cc(OCc2nc3ccccc3[nH]2)ccc1NC(=S)Nc1ccc(Cl)c(Cl)c1 [EZ17, N-[4-(1H-Benzimidazol-2ylmethoxy)-2-methylphenyl]-N'-(3,4-dichlorophenyl)-thiourea]
[1]; [5]
  pIC50: 6.09
FLAP
  Effect on FLAP activity: active
Isolated 5-LOX; at 10 µM
  inhibition at 10 µM: 65%
sEH [3]
  inhibition at 10 µM: ~64%

## CC(C)(C)OC(=O)n1c(COc2ccc(NC(=O)Nc3ccc(Cl)c(Cl)c3)cc2)nc2ccccc21 [EZ18, N-[4-(1-tert.-Butoxycarbonyl-1H-benzimidazol-2-ylmethoxy)-phenyl]-N'-(3,4-dichlorophenyl)-urea]
[1]; Homo sapiens, PMNL, at 10 µM
  inhibition at 10 µM: ~40%
Isolated 5-LOX; at 10 µM
  inhibition at 10 µM: ~22%
sEH [3]
  inhibition at 0.1 µM: ~67%

## O=C(Nc1ccc(OCc2nc3ccccc3[nH]2)cc1)Nc1ccc(Cl)c(Cl)c1 [EZ19, N-[4-(1-H-Benzimidazol-2-ylmethoxy)-phenyl]-N'-(3,4-dichlorophenyl)-urea]
[1]; read-out: Effect on 5-LOX product formation in PMNL, IC50
  pIC50: 6.26
FLAP
  Effect on FLAP activity: active
Isolated 5-LOX; at 10 µM
  Effect on isolated 5-LOX, % inhibition: ∼33 % inhibitio n at 10 µM
sEH [4]
  Effect on sEH activity, % inhibition: ∼52 % inhibition at 0.1 µM

## CC(C)(C)OC(=O)n1c(COc2ccc(NC(=S)Nc3ccc(Cl)c(Cl)c3)cc2)nc2ccccc21 [EZ20, N-[4-(1-tert.-Butoxycarbonyl-1H-benzimidazol-2-ylmethoxy)-phenyl]-N'-(3,4-dichlorophenyl)-thiourea]
[1]; Homo sapiens, PMNL
  inhibition at 10 µM: -65%
FLAP
  Effect on FLAP activity: inactive
Isolated 5-LOX
  inhibition at 10 µM: ~39%
sEH [3]
  inhibition at 0.1 µM: ~39%

## S=C(Nc1ccc(OCc2nc3ccccc3[nH]2)cc1)Nc1ccc(Cl)c(Cl)c1 [EZ21, N-[4-(1-H-Benzimidazol-2-ylmethoxy)-phenyl]-N'-(3,4-dichlorophenyl)-thiourea]
[1]; [5]
  pIC50: 6.16
Isolated 5-LOX; at 10 µM
  inhibition at 10 µM: 87%
sEH [3]
  inhibition at 10 µM: ~54%
